For the test, the system named is Plasmodium berghei. The experiment in a line: Luciferase/luciferin-expressing antifolate-resistant parasites were used to infect a culture of HepG2 cells that were pre-incubated with compounds. Infected hepatocytes emit light due to the luciferase reaction. Assay results are presented as the percent inhibition of light emission compared to control. […]. The format is functional. Conditions: sporozoite; for IC90: read-out: LUCIFERASE INFECTION ASSAY - IC90.

Setting [1] is: read-out: LUCIFERASE INFECTION ASSAY - IC50.

With `Cc1cccc(C)c1NC(=O)N1[C@@H]2CC[C@@H](C2)[C@H]1c1nc2cccc(OCc3ccc(F)cc3)c2[nH]1`, the IC90 was greater than 10 µM. For the setting “PBLUC_HILL_SLOPE 4.64, PBLUC_R_SQUARED 0.011, read-out: LUCIFERASE INFECTION ASSAY - IC50”, the IC50 is greater than 10 µM.

Regarding `O=C(Nc1nc2ccc([N+](=O)[O-])cc2s1)c1cccc(Cl)c1`, the IC90 was greater than 10 µM. Further, for the setting “HEPG2TOX_HILL_SLOPE 0.963, HEPG2TOX_R_SQUARED 0.986, PBLUC_HILL_SLOPE 0.779, PBLUC_R_SQUARED 0.754, read-out: LUCIFERASE INFECTION ASSAY - IC50”, the IC50 is 0.754 µM.

`CCOC(=O)C1=C(C)N(c2ccc(Cl)cc2)C(=O)NC1c1c(F)cccc1Cl` (stereo not given): the IC90 is greater than 10 µM. Further, the IC50 (FFLUC_HILL_SLOPE 0.633, FFLUC_R_SQUARED 0.184, HEPG2TOX_HILL_SLOPE 1.11, HEPG2TOX_R_SQUARED 0.991, PBLUC_HILL_SLOPE 1.36, PBLUC_R_SQUARED 0.55, read-out: LUCIFERASE INFECTION ASSAY - IC50) was 3.38 µM.

As to `CC(=O)N(/N=C/c1ccc(F)cc1)C1=NN(C(C)=O)C(c2ccc(F)cc2)S1` (stereo not given), the IC90 is greater than 8.2 µM. Also, the IC50 (HEPG2TOX_HILL_SLOPE 7.43, HEPG2TOX_R_SQUARED 0.382, read-out: LUCIFERASE INFECTION ASSAY - IC50) is greater than 8.2 µM.

Consider `Cc1c(-c2ccccc2)sc2ncnc(NCC(=O)N3CCCC3)c12`, for which the IC90 was greater than 10 µM. Moreover, the IC50 (PBLUC_HILL_SLOPE 2.95, PBLUC_R_SQUARED 0.129, read-out: LUCIFERASE INFECTION ASSAY - IC50) turned out to be 5.82 µM.

Regarding `Cc1n[n+]2c3c(cnc2s1)CC/C3=C/c1ccccc1`, the IC90 amounted to 9.79 µM. Also, the IC50 (HEPG2TOX_HILL_SLOPE 2.96, HEPG2TOX_R_SQUARED 0.5, PBLUC_HILL_SLOPE 7.3, PBLUC_R_SQUARED 0.698, read-out: LUCIFERASE INFECTION ASSAY - IC50) was 7.25 µM.

For `CC1CCN(C(=O)CSC(F)(F)F)CC1`, the IC90 was greater than 10 µM. Further, the IC50 under setting [1] was greater than 10 µM.

As to `COc1ccccc1NC(=O)/C=c1\s/c(=C\c2cnn(-c3ccccc3)c2)c(=O)n1C`, the IC90 was 0.632 µM. For the same molecule, the IC50 (HEPG2TOX_HILL_SLOPE 1.6, HEPG2TOX_R_SQUARED 0.888, PBLUC_HILL_SLOPE 1.61, PBLUC_R_SQUARED 0.941, read-out: LUCIFERASE INFECTION ASSAY - IC50) turned out to be 0.161 µM.

As to `Cc1ccc(NC(=O)Nc2ccc3nc(-c4ccccc4)nn3c2)cc1`, the IC90 is greater than 10 µM. The IC50 under setting [1] is greater than 10 µM.

For the molecule `CC/N=c1\scc(-c2ccc(Cl)cc2)n1/N=C/c1ccc[nH]1`, the IC90 came to 0.416 µM. In addition, the IC50 (PBLUC_HILL_SLOPE 20.7, PBLUC_R_SQUARED 0.413, read-out: LUCIFERASE INFECTION ASSAY - IC50) worked out at 0.374 µM.

On to `COc1ccc2nc3[nH]nc(N)c3cc2c1`, for which the IC90 is greater than 10 µM. The IC50 under setting [1] is greater than 10 µM.

For `O=C(CC1S/C(=N\c2ccccn2)NC1=O)Nc1ccc(Cl)cc1` (stereo not given), the IC90 was greater than 10 µM. In addition, under “PBLUC_HILL_SLOPE 2.4, PBLUC_R_SQUARED 0.685, read-out: LUCIFERASE INFECTION ASSAY - IC50”, the IC50 was 5.95 µM.

On to `Cc1ccc2cc(CN3CCCCC3C(N)=O)c(Cl)nc2c1C` (stereo not given), for which the IC90 is greater than 10 µM. Besides, under setting [1], the IC50 was greater than 10 µM.

Consider `CCCn1c(NC(=O)c2ccc(OCc3c(C)noc3C)c(OC)c2)nc2ccccc21`, for which the IC90 was greater than 10 µM. The IC50 (PBLUC_HILL_SLOPE 3.7, PBLUC_R_SQUARED 0.447, read-out: LUCIFERASE INFECTION ASSAY - IC50) turned out to be 6.12 µM.

In the case of `COc1ccc(N/N=C2\C=CC(=O)c3ncccc32)cc1`, the IC90 was greater than 10 µM. Under “HEPG2TOX_HILL_SLOPE 8.38, HEPG2TOX_R_SQUARED 0.289, PBLUC_HILL_SLOPE 16, PBLUC_R_SQUARED 0.427, read-out: LUCIFERASE INFECTION ASSAY - IC50”, the IC50 amounted to 9.1 µM.

On to `O=C(C1=NNCC1c1ccccc1)c1ccc2ccccc2c1` (stereo not given), for which the IC90 was greater than 11 µM. Moreover, the half-inhibitory concentration (IC50) (HEPG2TOX_HILL_SLOPE 1.14, HEPG2TOX_R_SQUARED 0.985, PBLUC_HILL_SLOPE 1.79, PBLUC_R_SQUARED 0.146, read-out: LUCIFERASE INFECTION ASSAY - IC50) amounted to 5.28 µM.

With `Cc1nc(-c2ccc(CCNC(=O)c3ccc(S(C)(=O)=O)c([N+](=O)[O-])c3)cc2)cs1`, the concentration for an effect of 90% (IC90) stood at 5.46 µM. Besides, the 50% inhibitory concentration (IC50) (HEPG2TOX_HILL_SLOPE 14.7, HEPG2TOX_R_SQUARED 0.837, PBLUC_HILL_SLOPE 381, PBLUC_R_SQUARED 0.298, read-out: LUCIFERASE INFECTION ASSAY - IC50) is 5.43 µM.

Turning to `NC(=O)c1cccc(-c2cn3c(-c4ccccc4)cnc3cn2)c1`, the IC90 is greater than 10.5 µM. For the same molecule, where the note is “HEPG2TOX_HILL_SLOPE 0.15, HEPG2TOX_R_SQUARED 0.654, PBLUC_HILL_SLOPE 0.762, PBLUC_R_SQUARED 0.254, read-out: LUCIFERASE INFECTION ASSAY - IC50”, the concentration for half-maximal inhibition (IC50) was greater than 10.5 µM.

As to `COc1cc2c(cc1OC)C(c1cccs1)N(Cc1cc(-c3ccco3)on1)CC2` (stereo not given), the IC90 is greater than 10 µM. Further, the IC50 (HEPG2TOX_HILL_SLOPE 7.23, HEPG2TOX_R_SQUARED 0.683, PBLUC_HILL_SLOPE 1.88, PBLUC_R_SQUARED 0.215, read-out: LUCIFERASE INFECTION ASSAY - IC50) was 9.72 µM.

As to `CC(NCC(=O)N1c2ccc(S(N)(=O)=O)cc2CC1C)C1CC2CCC1C2` (stereo not given), the IC90 came out at 7.51 µM. Under “FFLUC_HILL_SLOPE 16.6, FFLUC_R_SQUARED 0.154, PBLUC_HILL_SLOPE 1.1, PBLUC_R_SQUARED 0.764, read-out: LUCIFERASE INFECTION ASSAY - IC50”, the IC50 turned out to be 1.03 µM.

As to `O=S(=O)(Nc1cc(Cl)c(Cl)cc1Cl)c1cc(C(F)(F)F)cc(C(F)(F)F)c1`, the IC90 was found to be 1.98 µM. The IC50 (HEPG2TOX_HILL_SLOPE 2.48, HEPG2TOX_R_SQUARED 0.974, PBLUC_HILL_SLOPE 1.87, PBLUC_R_SQUARED 0.724, read-out: LUCIFERASE INFECTION ASSAY - IC50) came out at 0.611 µM.

Take `Cc1ccc(NC(=O)c2cc(-c3ccc4c(c3)OCCO4)nc3c2cnn3C(C)C)nc1`: the concentration for an effect of 90% (IC90) was greater than 10 µM. Further, the IC50 under setting [1] is greater than 10 µM.

Take `CC1CCN(C(CNC(=O)N2CCc3sccc3C2)c2cccs2)CC1` (stereo not given): the IC90 was 9.12 µM. Further, under “PBLUC_HILL_SLOPE 2.26, PBLUC_R_SQUARED 0.56, read-out: LUCIFERASE INFECTION ASSAY - IC50”, the IC50 turned out to be 3.45 µM.

For `O=C(CN1CCN(C(=O)C23CC4CC(CC(C4)C2)C3)CC1)c1ccc[nH]1`, the IC90 is greater than 10 µM. Under setting [1], the IC50 was greater than 10 µM.

Regarding `C/C(=N\NC(N)=S)c1ccc(CC(C)C)cc1`, the IC90 was greater than 13.2 µM. Under “HEPG2TOX_HILL_SLOPE 2.45, HEPG2TOX_R_SQUARED 0.895, PBLUC_HILL_SLOPE 1.49, PBLUC_R_SQUARED 0.577, read-out: LUCIFERASE INFECTION ASSAY - IC50”, the IC50 came out at 4.2 µM.

Turning to `Cc1ccc(C)c(-c2nn(CC(=O)c3cc(C)n(C)c3C)c(=O)c3ccccc23)c1`, the IC90 was greater than 10 µM. Under setting [1], the IC50 is greater than 10 µM.

In the case of `CSc1c(C#N)c(-c2ccc(Cl)cc2)nn1C(=O)C(C)C`, the IC90 was greater than 10.3 µM. The IC50 (PBLUC_HILL_SLOPE 1.94, PBLUC_R_SQUARED 0.662, read-out: LUCIFERASE INFECTION ASSAY - IC50) was greater than 10.3 µM.

`O=C(CCn1ccc2ccccc21)NC(Cc1ncc[nH]1)c1ccccc1` (stereo not given): the IC90 came to 4.79 µM. Further, the IC50 (PBLUC_HILL_SLOPE 8.72, PBLUC_R_SQUARED 0.12, read-out: LUCIFERASE INFECTION ASSAY - IC50) was 3.72 µM.

On to `N#Cc1ccc(CNC(=S)Nc2ccc(Cl)c(Cl)c2)cc1`, for which the IC90 came to 9.71 µM. Further, the IC50 (HEPG2TOX_HILL_SLOPE 2.37, HEPG2TOX_R_SQUARED 0.471, PBLUC_HILL_SLOPE 2.37, PBLUC_R_SQUARED 0.613, read-out: LUCIFERASE INFECTION ASSAY - IC50) was determined as 3.85 µM.

In the case of `Cc1ccc2nc(NC(=O)c3cc(F)ccc3F)c(C(=O)NCC(C)C)n2c1`, the 90% effect concentration (IC90) was 3.13 µM. In addition, the IC50 (HEPG2TOX_HILL_SLOPE 8.58, HEPG2TOX_R_SQUARED 0.935, PBLUC_HILL_SLOPE 15.1, PBLUC_R_SQUARED 0.738, read-out: LUCIFERASE INFECTION ASSAY - IC50) is 2.71 µM.

Consider `N#Cc1c(N2CCCCCC2)nc(N)c2c(N)nc3c(c12)CC(=O)N3c1ccc(F)cc1`, for which the IC90 is 1.19 µM. Moreover, the IC50 (FFLUC_HILL_SLOPE 141, FFLUC_R_SQUARED 0.168, PBLUC_HILL_SLOPE 30.3, PBLUC_R_SQUARED 0.605, read-out: LUCIFERASE INFECTION ASSAY - IC50) is 1.1 µM.

Turning to `COc1ccc(-c2[nH]c3ccc(F)cc3c2CCC(=O)NCc2nnc3ccccn23)cc1`, the 90% effect concentration (IC90) was greater than 10 µM. For the same molecule, the half-inhibitory concentration (IC50) (PBLUC_HILL_SLOPE 1.44, 1.44, PBLUC_R_SQUARED 0.412, 0.538, read-out: LUCIFERASE INFECTION ASSAY - IC50) stood at 5.36 µM.

Consider `Cc1cc(C(=O)COc2ccc(-c3nnco3)cc2)c(C)n1-c1ccc(F)cc1`, for which the IC90 is greater than 10 µM. Further, under setting [1], the IC50 amounted to 8.4 µM.

For `CC(Nc1ccc2c(c1)Cc1ccccc1-2)C(=O)N1CCCC1` (stereo not given), the IC90 is greater than 10 µM. Besides, the IC50 (PBLUC_HILL_SLOPE 13.8, PBLUC_R_SQUARED 0.568, read-out: LUCIFERASE INFECTION ASSAY - IC50) was 8.56 µM.

Regarding `Cc1ccnc2nc(C(=O)Nc3cc(C(F)(F)F)ccc3N3CCCCCC3)nn12`, the IC90 was 0.413 µM. The IC50 (PBLUC_HILL_SLOPE 19, PBLUC_R_SQUARED 0.744, read-out: LUCIFERASE INFECTION ASSAY - IC50) was found to be 0.368 µM.
